Data taken from PMC4468608, “A distinct p53 target gene set predicts for response to the selective p53–HDM2 inhibitor NVP-CGM097” (eLife, 2015).

System: NCI-H2122
Assay: Repeat cell proliferation assay
Type: cell-based, human
Conditions: NCI-H2122 TP53 mutant (Q16L and C176F)
Excerpt: . Cell lines were partitioned into sensitive and insensitive groups based on compound potency (IC50). […]. Forty seven cell lines were categorized as sensitive and 309 cell lines as insensitive. For the sensitive cell lines, the maximal compound effect level (Amax) was ≤ −50% (Figure 1C,D, Figure 1—source data 1). […].

COc1cc2c(cc1OC(C)C)[C@H](c1ccc(Cl)cc1)N(c1ccc(N(C)C[C@H]3CC[C@H](N4CCNC(=O)C4)CC3)cc1)C(=O)C2 [NVP-CFC218]
sensitivity in repeat cell proliferation assays: confirmed
